Test results: patent US20040259198A1, “Purified and isolated mat II beta subunit nucleic acids and polypeptides and therapeutic and screening methods using same” (priority 1999, published 2004)
Like-named read-outs stand apart in the source and are kept apart here.

Experiments:
[1] = tested on: MAT III; conditions: cited from earlier work
[2] = tested on: MAT I; conditions: cited from earlier work
[3] = molecular target: T1, MAT II from human leukemic cells (Homo sapiens, UniProt P31153); conditions: cited from earlier work
T1 construct: MAT II from human leukemic cells expressing both the α and β subunits of the enzyme; host or cells: human leukemic cells

[4] = tested on: MAT II; experiment: MAT activity and kinetics in extracts of transfected Cos-1 cells; format: biochemical, African green monkey; conditions: for Km: Cos-1 cells expressing high levels of rα2, two kinetic forms, read-out: Km for L-Met, lower-Km kinetic form
Description: Transfection of Cos-1 cells with pTargeT™/MAT2A or pTargeT™/MAT2B was done using the cationic lipid reagent, Transfast™ (Promega). Preliminary experiments were carried out to optimize the transfection conditions. Typically, 1.5×10^6 cells were plated in 100 mm dish one day prior to transfection. For each plate, […] of vector DNA was applied in the ratio of 1:1 to Transfast™ in a protein-free medium for 2 h. For cells co-transfected with both α2 and β vectors, […] DNA from each was used. For each experiment, one untransfected plate served as a normal control, and a second plate was transfected with the pTargeT™ vector only (mock-transfected cells). After 48 h, cells were harvested by trypsinization with a solution containing 0.05% trypsin and 0.53 mM EDTA in Hank's balanced salt solution (HBSS, from Cellgro). Trypsinization was stopped by the addition of media supplemented with 10% FCS, cells were pelleted, washed three times in 1 ml HBSS, counted, then resuspended in 1× extraction buffer with protease inhibitors (50 mM Tris, pH 7.4, 100 mM NaCl, 5 mM MgCl2, 4 mM dithiothreitol, 0.1 IU/ml aprotinin, 0.5 mM PMSF and […] soybean trypsin inhibitor). Cells were lysed by three cycles of quick freezing and thawing, and the lysate was clarified by centrifugation at 15,000×g for 10 min at 4° C. If not immediately used; cell extracts were stored at −80° C. Protein assays were performed using the bicinchoninic acid reagent (Sigma) following the manufacturer instructions.
MAT activity in cell extracts was assayed as previously described (Kotb, M., and Kredich, N. M. (1985) J. Biol. Chem. 260, 3923-30). […] The concentration of L-Met was varied between […] using ^14C-L-Met (57.9 mCi/mmol) to a concentration of up to […], and supplementary with cold L-Met for higher concentrations.

Compound: C[S+](CC[C@H](N)C(=O)[O-])C[C@H]1O[C@@H](n2cnc3c(N)ncnc32)[C@H](O)[C@@H]1O (stereo partly shown) [AdoMet, S-adenosylmethionine, reference compound]
- effect of AdoMet on enzyme [1]: activated
- effect of AdoMet on enzyme [2]: inhibited
- inhibition of enzyme activity ([3]; 25 μM AdoMet and 30 μM PPi): 3 fold
- inhibition of enzyme activity ([3]; 25 μM AdoMet): ~2 fold

Compound: MAT I: hepatic MAT, tetramer of the α1 catalytic subunit
- Km ([2]; read-out: Km for L-Met): 3 to 14 µM

Compound: MAT III: hepatic MAT, dimer of the α1 catalytic subunit
- Km ([1]; read-out: Km for L-Met): 100 to 200 µM

Compound: recombinant human MAT II α2: recombinant catalytic α2 subunit of human MAT II, encoded by MAT2A, His-tagged
- Km ([4]; listed as rMAT II α2 protein): 15.1 µM
- Km ([4]; listed as rα2): 15 µM
- effect on MAT (specific) activity ([4]; expression in Cos-1 cells, result in words): markedly increased
- increase in MAT activity ([4]; transfected Cos-1 cell extracts compared to untransfected (or mock-transfected) cells): 3-4 fold
